# Where two headings read alike, the source gives them in different places.
# Experiments:
# [1] = tested on: T. brucei 427 bloodstream form; assay: Reactive oxygen species determination (H2DCFDA, flow cytometry); assay type: cell-based, Trypanosoma brucei; conditions: twice the EC50 value (0.12 μM), 24 h
# Protocol: T. brucei 427 bloodstream form’s cellular ROS production was assessed using H2DCFDA (Sigma-Aldrich). Cells were preincubated for 24 h with 0.12 μM mitoDFO, and approximately 1 × 10^6 cells were incubated with 10 μM H2DCFDA for 30 min and washed with PBS with 6 mM glucose, and 10 000 events were measured on a Guava EasyCyte 8HT flow cytometer (Luminex) using a 488 excitation laser and a 525/30 detector. Median fluorescence was plotted against untreated culture using Prism 8.0 (GraphPad Software), and statistical significance was determined using a two-tailed paired t-test. The experiment was performed in three biologically independent replicates.
# [2] = tested on: Trypanosoma brucei 427 bloodstream forms; assay: T. brucei growth curves and doubling time (flow cytometry); assay type: cell-based; conditions: for Average doubling time: calculated between 24 and 48 h
# Protocol: Bloodstream T. brucei 427 cells were inoculated to a concentration of […] and incubated with the addition of mitoDFO (0.025 and 0.1 μM) or DFO (2.5 and 10 μM) in aerobic flasks in a total volume of 5 mL in 5% CO2 at 37 °C. Control with no compound was used to obtain reference values. At time points 24, 36, 48, and 72 h, a 20 μL sample was collected, diluted in growth medium, and measured on a Guava EasyCyte 8HT flow cytometer (Luminex) to assess concentration in previously experimentally prepared settings. The culture was simultaneously observed by light microscopy to confirm the cell viability. The growth curve was plotted by using Prism 8.0 (GraphPad Software). All conditions were measured in three biologically independent replicates. Doubling time was calculated between 24 and 48 h time points using the online calculator,[45] and each of the conditions was compared to the untreated culture using a two-tailed unpaired t-test.
# C. albicans = assay: Drug sensitivity assay, C. albicans (OD600); assay type: cell-based, Candida albicans; conditions: for EC50: Candida albicans, 48 h
# Protocol: (§1) All organisms were cultivated according to the conditions summarized in Table S2, which also includes strain specifications. Dose–response curves were obtained by their cultivation on 96 well plates in a 2-fold series dilution of the appropriate drug, in a total volume of 200 μL (with the exception of P. falciparum, where the total volume was 100 μL). Iron supplementation was achieved by mixing the compound with Fe-NTA in an equimolar ratio prior to setting up the experiment. Results were plotted and processed using Prism 8.0 (GraphPad Software). A two-tailed unpaired t-test was performed to assess the significance of the difference between mitoDFO with and without added iron. Selectivity was calculated as the ratio of the average EC50 value for human fibroblasts to the average EC50 value for the appropriate pathogen. All data were obtained from a minimum of three independent biological replicates.
# murine macrophage [3] = assay: Murine macrophage axenic monoculture EC50; assay type: cell-based, mouse; conditions: Mus musculus, Macrophage, read-out: EC50 axenic murine macrophage
# [4] = tested on: T. brucei 427 bloodstream form; assay: Mitochondrial membrane potential (TMRE, flow cytometry); assay type: cell-based, Trypanosoma brucei; parameters: dose or concentration left out as unconfirmed; conditions: 0.12, 0.3, and mitoDFO for 24 h
# Protocol: T. brucei 427 bloodstream form’s mitochondrial membrane potential was assessed using the fluorescent probe TMRE (Thermo Fisher Scientific). […] Approximately 1 × 10^6 cells were incubated with 60 nM TMRE for 30 min and washed with PBS with 6 mM glucose, and 10 000 events were measured on a Guava EasyCyte 8HT flow cytometer (Luminex) using a 488 excitation laser and a 583/26 detector. Median fluorescence was plotted against untreated culture using Prism 8.0 (GraphPad Software), and statistical significance was determined using RM one-way ANOVA with Geisser-Greenhouse correction. The experiment was performed in three biologically independent replicates.
# Candida albicans = assay: C. albicans hyphae formation (phase contrast microscopy); assay type: cell-based; conditions: 3.6 and 7.2 μM mitoDFO for 24 h
# Protocol: The yeast form of C. albicans was seeded in the 2 mL RPMI medium on a 24 well plate with a glass bottom and treated with MitoDFO in concentrations of 0, 3.6, and 7.2 μM. The culture was incubated at 35 °C for 24 h, and microscopic images were taken using phase contrast on an inverted microscope Eclipse TI-S (Nikon).
# T. brucei BSF cells = assay: Sytox Green assay, percentage of live cells; assay type: cell-based, Trypanosoma brucei
# Protocol: Sytox Green Assay to determine the percentage of live treated and untreated cells at selected time points. T. brucei BSF cells were seeded at a concentration of 2 × 10^5 cells/mL in 5 mL HMI-9 medium in aerobic cultivation flasks. Cells were treated with compounds at final concentration of 0,05 µM, 0,1 µM, 0,25 µM mitoDFO and 10 µM, 100 µM DFO. In addition, there was a group of untreated cells. At defined time points (24, 36, 48, and 72 h), 20 µL samples were collected from each flask. These samples were then diluted tenfold in fresh HMI-9 medium, reaching a final volume of 200 µL, with the addition of 2 µL SYTOX Green Dead Cell Stain (Invitrogen). Following a 30-minute incubation under standard growth conditions, the cells were analyzed using a Guava EasyCyte 8HT flow cyometer (Luminex flow) with detection at 504/523 nm. This entire procedure was conducted in biological triplicates.
# Compound Concentration % of live cells
# T. brucei 427 (BSF) = assay: Drug sensitivity assay, T. brucei 427 bloodstream form (resazurine); assay type: cell-based, Trypanosoma brucei; conditions: for selectivity (for −Fe): EC50 human fibroblasts / EC50 T. brucei 427 (BSF); for EC50: Trypanosoma brucei, 72 h
# Protocol: as §1
# murine macrophage [5] = assay: Intracellular L. mexicana infection assay, macrophage population; assay type: cell-based, mouse; conditions: Mus musculus, Macrophage, read-out: EC50 infection assay murine macrophage
# Protocol: Approximately 10 000 murine macrophages per well were seeded on 96 well plate, and a suspension of 60 000 L. mexicana GFP-expressing promastigotes was added to each well and left to infect the mammal cells for 72 h in a cultivation medium under the conditions described in Table S2. 2-fold dilution series starting with 100 μM of either mitoDFO, DFO, or Amphotericin B in a regular growth medium were added, and cultures were incubated for further 72 h in the same conditions. Macrophage cells were washed and resuspended in growth medium and detached by pipetting, and their concentration in each well was measured on a Guava EasyCyte 8HT flow cytometer (Luminex). The GFP signal of internalized L. mexicana amastigotes in each macrophage was detected using a 488 nm excitation laser and a 525/30 nm detector. Median fluorescence graphs were plotted, and EC50 values for both macrophages and intracellular L. mexicana were calculated using Prism 8.0 (GraphPad Software).
# [6] = approximately half the EC50 concentration of the compound
compound,measurement,setting,value
CC(=O)N(O)CCCCCNC(=O)CCC(=O)N(O)CCCCCNC(=O)CCC(=O)N(O)CCCCCN(CCCCCCCCCC[P+](c1ccccc1)(c1ccccc1)c1ccccc1)CCCCCCCCCC[P+](c1ccccc1)(c1ccccc1)c1ccccc1 [mitoDFO],increase in the presence of ROS compared to the culture without treatment,[1],approximately 3.5 fold
same,Average doubling time,[2]; 0.025 μM mitoDFO,8.07 h
same,cell proliferation (growth curve),[2]; [6],does not affect cell proliferation
same,cell proliferation (growth curve),[2]; twice the EC50 concentration,stops its growth
same,DFO/mitoDFO ratio (−Fe),C. albicans; C. albicans,>27.8
same,mitoDFO EC50 ratio + Fe/–Fe,C. albicans; C. albicans,2.6
same,EC50,C. albicans; read-out: EC50 –Fe,3.6 ± 1.7 µM
same,selectivity (for −Fe),C. albicans; EC50 human fibroblasts / EC50 C. albicans,2
same,EC50,murine macrophage [3],6.34 ± 4.45 µM
same,mitochondrial membrane potential,[4],rapidly reduced in a dose-dependent manner
same,hyphal growth of Candida albicans culture,Candida albicans,absence of hyphal growth
same,% of live cells,"T. brucei BSF cells; 0,1 µM mitoDFO, 24h","99,1%"
same,% of live cells,"T. brucei BSF cells; 0,1 µM mitoDFO, 36h","97,9%"
same,% of live cells,"T. brucei BSF cells; 0,1 µM mitoDFO, 48h","66,2%"
same,% of live cells,"T. brucei BSF cells; 0,1 µM mitoDFO, 72h","53,8%"
same,% of live cells,"T. brucei BSF cells; 0,05 µM mitoDFO, 24h","98,6%"
same,% of live cells,"T. brucei BSF cells; 0,05 µM mitoDFO, 36h","96,1%"
same,% of live cells,"T. brucei BSF cells; 0,05 µM mitoDFO, 48h","62,1%"
same,% of live cells,"T. brucei BSF cells; 0,05 µM mitoDFO, 72h","52,8%"
same,% of live cells,"T. brucei BSF cells; 0,25 µM mitoDFO, 24h","94,4%"
same,% of live cells,"T. brucei BSF cells; 0,25 µM mitoDFO, 36h","82,5%"
same,% of live cells,"T. brucei BSF cells; 0,25 µM mitoDFO, 48h","70,2%"
same,% of live cells,"T. brucei BSF cells; 0,25 µM mitoDFO, 72h","64,3%"
same,cells alive,T. brucei BSF cells; 24 h incubation with up to 0.25 μM,more than 90%
same,living cells,"T. brucei BSF cells; twice the EC50 concentration, 36 h",more than 95%
same,selectivity (for −Fe),T. brucei 427 (BSF),151
same,DFO/mitoDFO ratio (−Fe),T. brucei 427 (BSF); T. brucei 427 (BSF),372.9
same,mitoDFO EC50 ratio + Fe/–Fe,T. brucei 427 (BSF); T. brucei 427 (BSF),2.1
same,EC50,T. brucei 427 (BSF); read-out: EC50 –Fe,0.059 ± 0.022 µM
same,EC50,murine macrophage [5]; 72 h,4.67 ± 1.18 µM
"CC(=O)N(O)CCCCCNC(=O)CCC(=O)N(O)CCCCCNC(=O)CCC(=O)N(O)CCCCCN [DFO, Deferoxamine, reference compound]",Average doubling time,[2]; 2.5 μM DFO,8.28 h
same,Average doubling time,[2]; 10 μM DFO,14.17 h
same,cell proliferation (growth curve),[2]; [6],slows down cell proliferation
same,EC50,"C. albicans; iron-free compound, C. albicans, read-out: EC50 –Fe",> 100 µM
same,EC50,"C. albicans; pre-treated with equimolar iron, C. albicans, read-out: EC50 +Fe",> 100 µM
same,EC50,murine macrophage [3]; axenic monoculture,> 25 µM
same,% of live cells,"T. brucei BSF cells; 10 µM DFO, 24h","99,1%"
same,% of live cells,"T. brucei BSF cells; 10 µM DFO, 36h","97,5%"
same,% of live cells,"T. brucei BSF cells; 10 µM DFO, 48h","74,3%"
same,% of live cells,"T. brucei BSF cells; 10 µM DFO, 72h","58,6%"
same,% of live cells,"T. brucei BSF cells; 100 µM DFO, 24h","95,5%"
same,% of live cells,"T. brucei BSF cells; 100 µM DFO, 36h","78,2%"
same,% of live cells,"T. brucei BSF cells; 100 µM DFO, 48h","62,1%"
same,% of live cells,"T. brucei BSF cells; 100 µM DFO, 72h","54,8%"
same,selectivity (for −Fe),T. brucei 427 (BSF),>5
same,EC50,"T. brucei 427 (BSF); iron-free compound, T. brucei 427 (BSF), read-out: EC50 –Fe",22 ± 1.2 µM
same,EC50,"T. brucei 427 (BSF); pre-treated with equimolar iron, T. brucei 427 (BSF), read-out: EC50 +Fe",> 50 µM
same,EC50,"murine macrophage [5]; infected macrophages, 72 h treatment",45.3 ± 3.09 µM

# From PMC10862539, “Chelation of Mitochondrial Iron as an Antiparasitic Strategy” (ACS Infectious Diseases, 2024)
